Key:
[1] = Fluorescence quantum yield determination; type: physicochemical; conditions: in DMSO, relative to rhodamin B
Description: The samples’ steady-state fluorescence characteristics were measured in L-format using a Chronos DFD Fluorescence spectrometer (ISS, USA) equipped with a 300 W Cermax xenon arc lamp (ISS, USA), a concave holographic grating monochromator, and a PMT detector. The required amount of each sample was diluted in DMSO and measured in a 1-cm quartz cuvette at a constant temperature of 25 °C. The resulting data were evaluated using Vinci software (ISS, USA) and correlated to the utilized optical configuration.
Absorption spectra were measured using a high-performance Specord S 600 diode spectrophotometer (Jena Analyst, DE). The required amount of each sample was diluted in DMSO, added to 1-cm quartz cuvette, and measured within the selected absorbance spectrum range, against pure DMSO as a blank, at a constant temperature of 25 °C. The results were evaluated using WinASPECT® software (Jena Analyst, DE).
Fluorescence quantum yield was determined following a previously described protocol ([Kozma et al., 2005]; [Magde et al., 1999]; [Williams et al., 1983]). The kinetics of the incorporation of compounds into liposome membrane models was determined using steady-state fluorescence spectroscopy at a constant excitation and emission wavelength, according to the corresponding sample excitation and emission maxima. We added 50 μL of LNP suspension to 0.1 mM of the analyte in PBS, and monitored the increase of fluorescence intensity over the time range from 0 to 1400s. The preparation and characterization of the liposomal suspension is described in the supporting information (Fig. S4).
1. Supplementary material and methods
1.1. Fluorescence quantum yield (QY) determination
The steady-state fluorescence and absorption data were used for quantum yield determination. QY was determined relative to a reference compound, rhodamin B. Absorbance in the range of 0.01–0.1 was used to calculate the QY. We plotted two calibration curves of integrated emission fluorescence intensity as a function of sample absorbance. […]

CRFK cells = test: Cytotoxicity assay (Cell Counting Kit-8) in CRFK cells; type: cell-based, Felis catus; conditions: up to 10 µM
Description: (§1) To determine the overall cytotoxicity of the tested compounds, Vero cells were cultured for 24 h in 96-well plates to form a confluent monolayer, and then were treated with the tested compounds at concentrations of 2 and 10 µM. After 48 h of cultivation in the dark at 37 °C under 5% CO2, the cell culture medium was aspirated. The potential cytotoxicity of the tested perylene derivatives was determined based on cell viability using Cell Counting Kit-8 (Dojindo Molecular Technologies, Munich, Germany) according to the manufacturer's instructions. The cell viabilities of compound-treated Vero cells were compared with those of control DMSO-treated cells. We also used the above-described protocol to assess the cytotoxicity of the selected perylene antivirals, at concentrations ranging from 0 to 10 µM, in CaCo-2 and CRFK cells.

CaCo-2 cells [2] = test: Cytotoxicity assay (Cell Counting Kit-8) in CaCo-2 cells; type: cell-based, human; conditions: up to 10 µM
Description: as §1

[3] = tested on: SARS-CoV-2 (Wuhan strain); test: Viral titer inhibition assay, SARS-CoV-2 in CaCo-2 cells; type: cell-based; conditions: 0–10 µM
Vero cells = test: Light-induced cytotoxicity in Vero cells; type: cell-based, African Green Monkey; conditions: 0–10 µM, 465–480 nm 10 min, then 24 h in the dark
Description: To determine the light-induced cytotoxicity of the tested compounds, Vero cells were cultured for 24 h in 96-well plates to form a confluent monolayer, and then were treated with the tested compounds at concentrations of 0 to 10 µM. Then, the compound-treated cells were irradiated for 10 min at RT with LEDs (465–480 nm) having an approximate power density of 30 mW/cm^2 (device description in Fig. S7). As a negative control, compound-treated cells were incubated for 10 min in the dark at RT. Subsequently, both irradiated and non-irradiated cell monolayers were incubated in the dark at 37 °C for 24 h. Then, the cell culture medium was aspirated and the potential cytotoxicity of the tested perylene derivatives was determined based on cell viability using Cell Counting Kit-8 (Dojindo Molecular Technologies, Munich, Germany) according to the manufacturer's instructions.

CaCo-2 cells [4] = test: Cellular stress marker expression by RT-qPCR in CaCo-2 cells; type: cell-based, human
Description: RT-qPCR was performed to evaluate changes in the gene expression of cellular stress markers. […] Previous publications report the primer sequences and numbers of the Universal Probe Library (UPL; Roche Life Sciences, Germany) used for detection of ATF3, CDKN1A (p21), CYP1A1, DDIT3, HMOX1, HSPA1B (HSP70), and HSPA5 mRNAs ([Procházková et al., 2018]; [Šimečková et al., 2020]). […] TaqMan™ Gene Expression Assays (Thermo Fisher Scientific, Waltham, MA, USA) were used to determine the levels of FGF21 (Hs00173927_m1), GADD45A (Hs00169255_m1), GDF15 (Hs00171132_m1), and SRXN1 (Hs00607800_m1). The amplification was run in a 10-µL reaction mixture containing 1 µL of sample, using Kapa Probe Fast One-Step (Kapa Biosystems Pty, Cape Town, South Africa) on a LightCycler® 480 System (Roche Diagnostics, Czech Republic) using the previously published sequence ([Procházková et al., 2018]). Reference gene qPCR assays (Generi Biotech, Hradec Králové, Czech Republic) were used for the following housekeeping genes: human β2-Microglobulin (B2M; #3030), hydroxymethylbilane synthase (HMBS; #3032), and RNA polymerase II subunit A (POLR2A; #3035). We used an average of three reference gene Cp values to calculate the change in gene expression using the comparative threshold cycle method ([Schmittgen and Livak, 2008]).

## CC(C)(C)C(=O)OCn1c(=O)c(C#Cc2ccc3c4cccc5cccc(c6cccc2c63)c54)cn(CC(=O)N(CCO)CCO)c1=O [Compound 13]
[1]
  fluorescence quantum yield: 90%
CRFK cells
  tolerability by CRFK cells: well-tolerated
CaCo-2 cells [2]
  tolerability by CaCo-2 cells: well-tolerated
[3]
  anti-SARS-CoV-2 activity in CaCo-2 cells: sub-micromolar
Vero cells
  effect of blue light irradiation on cytotoxicity: dramatically increased
CaCo-2 cells [4]; CaCo-2 cells, 10 µM, all tested incubation periods
  CYP1A1 expression: significantly decreased
CaCo-2 cells [4]; CaCo-2 cells, 5, 24 and 48 h
  expression of HMOX1, SRXN1, TXNRD1 (oxidative stress): did not increase
  expression of HSPA5, DDIT3, HSPA1B (HSP70), CDKN1A (p21), GADD45A: no changes
  expression of early toxicity markers (ATF3, FGF21, GDF15): did not induce
